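Cultured in 96-well plates, cells were exposed to test compound for 48 hours across five concentrations. Abbreviation: GI50, concentration required for 50% inhibition of growth. TGI marks complete inhibition of growth.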
Tests used:
Experiment in all cases: NCI anticancer screen, dose series, 48 h
[1] = system: 786-0 renal
[2] = system: A498 renal
[3] = system: A549 NSCLC
[4] = system: ACHN renal
[5] = system: BT-549 breast
[6] = system: CAKI-1 renal
[7] = system: CCRF-CEM leukemia
[8] = system: COLO 205 colon
[9] = system: EKVX NSCLC
[10] = system: HCC-2998 colon
[11] = system: HCT-116 colon
[12] = system: HCT-15 colon
[13] = system: HOP-92 NSCLC
[14] = system: HS 578T breast
[15] = system: HT29 colon
[16] = system: IGROV1 ovarian
[17] = system: K-562 leukemia
[18] = system: KM12 colon
[19] = system: LOX IMVI melanoma
[20] = system: M14 melanoma
[21] = system: MALME-3M melanoma
[22] = system: MCF7 breast
[23] = system: MDA-MB-231 breast
[24] = system: MDA-MB-435
[25] = system: MOLT-4 leukemia
[26] = system: NCI-H23 lung
[27] = system: NCI-H460 lung
[28] = system: NCI/ADR-RES ovarian
[29] = system: OVCAR-3 ovarian
[30] = system: OVCAR-4 ovarian
[31] = system: OVCAR-5 ovarian
[32] = system: OVCAR-8 ovarian
[33] = system: PC-3 prostate
[34] = system: RPMI-8226 leukemia
[35] = system: RXF 393 renal
[36] = system: SF-268 CNS
[37] = system: SF-295 CNS
[38] = system: SF-539 CNS
[39] = system: SK-MEL-2 melanoma
[40] = system: SK-MEL-28 melanoma
[41] = system: SK-MEL-5 melanoma
[42] = system: SK-OV-3 ovarian
[43] = system: SN12C renal
[44] = system: SNB-75 CNS
[45] = system: SR leukemia
[46] = system: SW-620 colon
[47] = system: T-47D breast
[48] = system: TK-10 renal
[49] = system: U251 CNS
[50] = system: UACC-257 melanoma
[51] = system: UACC-62 melanoma
[52] = system: UO-31 renal

With N#C[Se]CCN1C(=O)C2C(C1=O)[C@H]1C=C[C@@H]2S1 (some centres undefined) the GI50 [1] was 1.97 µM, the TGI [1] was 3.68 µM and the GI50 [2] was 1.51 µM. It also gave a TGI [2] of 3.33 µM, a GI50 [3] of 1.93 µM and a TGI [3] of 4.56 µM. The GI50 [4] was 2.07 µM, the TGI [4] was 3.99 µM and the GI50 [5] was 1.74 µM. For the same compound, the TGI [5] was 3.38 µM, the GI50 [6] was 1.9 µM and the TGI [6] was 3.39 µM. For the same compound, the GI50 [7] was 1.84 µM, the TGI [7] was 6.14 µM and the GI50 [8] was 2.45 µM. For the same compound, the TGI [8] was 6.42 µM, the GI50 [9] was 1.83 µM and the TGI [9] was 4.28 µM. The GI50 [10] was 2.18 µM, the TGI [10] was 5.44 µM and the GI50 [11] was 1.85 µM. For the same compound, the TGI [11] was 4.35 µM, the GI50 [12] was 2.2 µM and the TGI [12] was 5.77 µM. It also gave a GI50 [13] of 1.88 µM, a TGI [13] of 3.94 µM and a GI50 [14] of 1.75 µM. It also gave a TGI [14] of 6.21 µM, a GI50 [15] of 2.65 µM and a TGI [15] of 8.98 µM. For the same compound, the GI50 [16] was 1.59 µM, the TGI [16] was 3.48 µM and the GI50 [17] was 3.24 µM. For the same compound, the TGI [17] was 12 µM, the GI50 [18] was 2.32 µM and the TGI [18] was 5.38 µM. The GI50 [19] was 1.67 µM, the TGI [19] was 4.12 µM and the GI50 [20] was 1.54 µM. The TGI [20] was 3.62 µM, the GI50 [21] was 1.53 µM and the TGI [21] was 3.65 µM. For the same compound, the GI50 [22] was 2.37 µM, the TGI [22] was 9.19 µM and the GI50 [23] was 2.24 µM. For the same compound, the TGI [23] was 5.2 µM, the GI50 [24] was 1.7 µM and the TGI [24] was 3.26 µM. It also gave a GI50 [25] of 1.31 µM, a TGI [25] of 8.06 µM and a GI50 [26] of 2.46 µM. It also gave a TGI [26] of 6.51 µM, a GI50 [27] of 1.93 µM and a TGI [27] of 6.77 µM. It also gave a GI50 [28] of 2.4 µM, a TGI [28] of 7.18 µM and a GI50 [29] of 1.94 µM. It also gave a TGI [29] of 3.85 µM, a GI50 [30] of 1.85 µM and a TGI [30] of 6.1 µM. The GI50 [31] was 2.56 µM, the TGI [31] was 6.4 µM and the GI50 [32] was 2.11 µM. For the same compound, the TGI [32] was 5.26 µM, the GI50 [33] was 2.11 µM and the TGI [33] was 5.9 µM. The GI50 [34] was 2.04 µM, the TGI [34] was 4.84 µM and the GI50 [35] was 1.63 µM. For the same compound, the TGI [35] was 3.27 µM, the GI50 [36] was 1.95 µM and the TGI [36] was 3.86 µM. It also gave a GI50 [37] of 1.83 µM, a TGI [37] of 3.35 µM and a GI50 [38] of 1.69 µM. It also gave a TGI [38] of 3.18 µM, a GI50 [39] of 2.44 µM and a TGI [39] of 6.43 µM. It also gave a GI50 [40] of 1.92 µM, a TGI [40] of 5.02 µM and a GI50 [41] of 2.02 µM. The TGI [41] was 4.09 µM, the GI50 [42] was 2.67 µM and the TGI [42] was 5.59 µM. It also gave a GI50 [43] of 1.92 µM, a TGI [43] of 4.07 µM and a GI50 [44] of 1.39 µM. For the same compound, the TGI [44] was 3.85 µM, the GI50 [45] was 1.98 µM and the TGI [45] was 7.7 µM. The GI50 [46] was 2.87 µM, the TGI [46] was 8.19 µM and the GI50 [47] was 2.52 µM. For the same compound, the TGI [47] was 7.78 µM, the GI50 [48] was 2.16 µM and the TGI [48] was 4.44 µM. For the same compound, the GI50 [49] was 1.8 µM, the TGI [49] was 4.13 µM and the GI50 [50] was 1.97 µM. For the same compound, the TGI [50] was 5.4 µM, the GI50 [51] was 1.98 µM and the TGI [51] was 4.27 µM. For the same compound, the GI50 [52] was 1.36 µM and the TGI [52] was 2.9 µM.

From PubChem BioAssay (NCI)
